According to patent US20150299660A1, “DIFFERENTIATION OF HUMAN FIBROBLAST CELLS” (International Stem Cell Corporation, priority 2012, published 2015):

Key:
[1] = tested on: MSC which have under gone chondrogenesis; assay: Cartilage / matrix formation by MSC which have undergone chondrogenesis, complex sugars in the media; assay type: cell-based; settings: sugar in the media
From the text: (§1) As used herein, the terms “complex sugar” and “complex sugars” includes monomeric and polymeric sugar chains. The use of sugars as a supplement enhancing extracellular matrix deposition is a unique aspect to the present invention. They can also be specific for cell type. As an example, previous studies have shown mesenchymal stem for chondrogenesis using a similar formulation as disclosed in the present invention, but without glucosamine sulfate. […] In a surprising aspect the present invention discloses that the use of certain complex sugars in the media massively increases the accumulation of calcium derived from osteocytes while the use of other sugars actively suppresses the accumulation of calcium. […] Fibroblasts allowed to acquire a MSC like state require galactose, glucuronic acid and glucosamine sulfate for cartilage formation, while hyaluronic acid will repress it. Examples of sugars are hyaluronic acid, galactose, glucosamine sulfate, glucuronic acid, mannose, sialic acid, chondroitin sulfate and galactosamine.

[2] = tested on: MSC which have undergone osteogenesis; assay: Calcium / matrix deposition by MSC which have undergone osteogenesis, complex sugars in the media; assay type: cell-based; settings: sugar in the media
From the text: as §1

[3] = tested on: Fibroblasts allowed to acquire a MSC like state; assay: Cartilage formation by fibroblasts allowed to acquire a MSC like state, complex sugars in the media; assay type: cell-based; settings: sugar in the media
From the text: as §1
Fibroblast cells were grown in FibroLife S2 on standard tissue culture-treated plastic. Fibroblasts cells were plated at 20,000 cells/cm^2 and allowed the cells to grow to 80-90% confluence actively proliferating.
The cells were centrifuged and the cells resuspended at 2.5×10^7 cells/ml in 1.5% alignate solution. The cells in the alignate solution are loaded into a syringe and applied to a stirred 100 mM calcium chloride solution to form microbeads. After 10 minutes, the calcium chloride solution was removed and the microbeads transferred to a 48 well plate. The microbeads were washed twice with 0.5 ml ChondroLife Chondrogenesis media (Table 7). The plates were incubated at 37° C., 5% CO2. The media was changed every 2-3 days for 3 weeks.
To examine the growth of the chondrocytes, the microbeads were fixed, frozen in OCT compound, cut in 5 μM sections and mounted on glass slides. The microbeads were stained with Alcian Blue to detect the presence of sulfated proteoglycans.

mesenchymal stem cells = settings: shown previously; cited from earlier work
fibroblasts = settings: has been shown; cited from earlier work
human fibroblast cells = assay: Differentiation of human fibroblast cells into adipocytes (lipid accumulation, Oil Red O); assay type: cell-based; settings: Troglitazone in combination with other elements
Method: Fibroblast cells were grown in FibroLife S2 on standard tissue culture-treated plastic. Fibroblasts cells were plated at 20,000 cells/cm^2 and allowed the cells to grow to confluence (roughly 80,000 cells/cm^2) in approximately 2 days. Once the cells reached confluence the cell culture media was changed to AdipoLife Complete DifFactor 1 media. The cell culture media continued to be changed every 2 days. After 4 days the cell culture media was changed to AdipoLife Complete DifFactor 2 media for 17 days. Lipid accumulation was visible after 5 days culture in the AdipoLife Complete DifFactor 2 media. After 3 weeks of culture the cells were stained with Oil Red O stained to assay for accumulated lipids

In the case of `N[C@H]1C(O)O[C@H](CO)[C@@H](O)[C@@H]1O.O=S(=O)(O)O` (some centres unmarked) [glucosamine sulfate], the “effect on cartilage formation / matrix deposition” value [1] is reported as “repress matrix deposition”, the “effect on calcium deposition / matrix formation” value [2] is reported as “vastly increased amounts of calcium deposition” and the “effect on cartilage formation” value [3] is reported as “require”. For the same compound, the “effect on matrix secretion” value (mesenchymal stem cells) was “detrimental to matrix secretion”.

With `O=C[C@H](O)[C@@H](O)[C@@H](O)[C@H](O)CO` [galactose] the “effect on cartilage formation / matrix deposition” value [1] was “vastly augments cartilage formation”, the “effect on calcium deposition / matrix formation” value [2] was “vastly increased amounts of calcium deposition” and the “effect on cartilage formation” value [3] was “require”.

With hyaluronic acid the “effect on cartilage formation / matrix deposition” value [1] was “vastly augments cartilage formation”, the “effect on calcium deposition / matrix formation” value [2] was “vastly increased amounts of calcium deposition” and the “effect on cartilage formation” value [3] was “repress it”. The “effect on matrix deposition” value (fibroblasts) was “detrimental to matrix deposition”.

For `O=C[C@H](O)[C@@H](O)[C@H](O)[C@H](O)C(=O)O` [glucuronic acid], the “effect on cartilage formation / matrix deposition” value [1] was “vastly augments cartilage formation” and the “effect on cartilage formation” value [3] was “require”.

For `Cc1c(C)c2c(c(C)c1O)CCC(C)(COc1ccc(CC3SC(=O)NC3=O)cc1)O2` (centres unmarked) [Troglitazone], the “surface of the human cell culture covered with lipid-accumulating cells” value (human fibroblast cells) was ≥ 70%.
